≈ marks a conversion by molar mass, not a printed value.
Key:
[1] = Selectivity ratio, EC50 for cytotoxicity against rat L6 cells to EC50 for antitrypanosomal activity against Trypanosoma cruzi Tulahuen strain C2C4 trypomastigotes infected in rat L6 cells; format: toxicity, cell-based; conditions: read-out: Ratio EC50
[2] = system: Trypanosoma cruzi; test: Antitrypanosomal activity against Trypanosoma cruzi Tulahuen strain C2C4 trypomastigotes infected in rat L6 cells incubated for 96 hrs by photometric method based assay; format: functional, organism-based; conditions: Tulahuen strain C2C4, L6, 96 h
[3] = system: L6; test: Cytotoxicity against rat L6 cells incubated for 70 hrs by resazurin dye based assay; format: cell-based; conditions: L6, 70 h
[4] = Intrinsic clearance in CD1 mouse liver microsomes at 0.5 uM measured up to 30 mins in presence of NADPH by UPLC-MSMS analysis; format: ADME, Microsome; conditions: 0.5 h
[5] = Kinetic aqueous solubility of compound in DMSO by nephelometric analysis; format: physicochemical; conditions: read-out: Kinetic_solubility

EC50 [2] [µM] | intrinsic clearance [4] [mL/min/g] | solubility kinetic [5] [µM] | SMILES | selectivity ratio [1] | EC50 [3] [µM]
35 | – | – | COCCn1c(=O)[nH]c2ccc(NC(C)=O)cc2c1=O | 0.003 | 0.1
0.24 | 1.6 | – | CC(C)(C)[C@H]1CC[C@@H](n2c(=O)[nH]c3ncc(N)cc3c2=O)CC1 | 183 | 44
0.33 | 2.7 | 48 (≈ 15.9 µg/mL) | CC[C@H]1CC[C@@H](n2c(=O)[nH]c3ncc(NC(C)=O)cc3c2=O)CC1 | 150 | 48
61 | – | – | CC(=O)Nc1ccc2[nH]c(=O)n(C(C)(C)C)c(=O)c2c1 | 0.6 | 37
9.7 | – | – | CC(=O)Nc1ccc2[nH]c(=O)n(CCC(C)C)c(=O)c2c1 | 17 | 163
2.3 | – | 97 (≈ 32 µg/mL) | CC(=O)Nc1cnc2[nH]c(=O)n(CCC3CCCCC3)c(=O)c2c1 | 57 | 130
0.02 | 31 | – | CC(=O)Nc1ccc2[nH]c(=O)n(C3CCC(C(C)(C)C)C3)c(=O)c2c1 (racemic) | 2100 | 41
0.57 | 4.8 | 17 (≈ 5.14 µg/mL) | CC(C)[C@H]1CC[C@@H](n2c(=O)[nH]c3ncc(N)cc3c2=O)CC1 | 81 | 46
4 | – | – | CC(=O)Nc1ccc2[nH]c(=O)n(CCCC(C)C)c(=O)c2c1 | 43 | 173
0.017 | < 0.5 | 95 (≈ 34 µg/mL) | CC(=O)Nc1ccc2[nH]c(=O)n([C@H]3CC[C@@H](C(C)(C)C)CC3)c(=O)c2c1 | 290 | 5
0.1 | 15 | < 28 | CC(=O)Nc1cnc2[nH]c(=O)n([C@H]3CC[C@@H](C(C)(C)C)CC3)c(=O)c2c1 | 150 | 15
0.58 | < 0.5 | – | CC(=O)Nc1ccc2[nH]c(=O)n([C@H]3CO[C@H](C(C)(C)C)OC3)c(=O)c2c1 | 47 | 27
14 | – | – | O=c1[nH]c2ccc(-c3cncnc3)cc2c(=O)n1CCC1CCCCC1 | 9 | 126
2.6 | – | – | CC(=O)Nc1ccc2[nH]c(=O)n([C@H]3CC[C@@H](NC(=O)OC(C)(C)C)CC3)c(=O)c2c1 | 45 | 118
220 | – | – | CC(=O)Nc1ccc2[nH]c(=O)n(C3CCN(C(C)(C)C)CC3)c(=O)c2c1 | 1 | > 280
– | 3.9 | 240 (≈ 75.7 µg/mL) | CC(C)(C)[C@H]1CC[C@@H](n2c(=O)[nH]c3ccc(N)cc3c2=O)CC1 | – | –
30 | – | – | CC(=O)Nc1ccc2[nH]c(=O)n(C3CCN(C(=O)OC(C)(C)C)CC3)c(=O)c2c1 | 4.2 | 127
4.2 | – | – | CC(=O)Nc1ccc2[nH]c(=O)n(C3CCCCC3)c(=O)c2c1 | 17 | 70
1.9 | – | – | O=c1[nH]c2ccc(-c3cccnc3)cc2c(=O)n1CCC1CCCCC1 | 7.4 | 14

EC50 [2] [µM] | intrinsic clearance [4] [mL/min/g] | solubility kinetic [5] [µM] | SMILES | selectivity ratio [1] | EC50 [3] [µM]
2.1 | – | – | N#CCc1ccc2[nH]c(=O)n(CCC3CCCCC3)c(=O)c2c1 | 33 | 70
120 | – | – | Cc1noc(C)c1-c1ccc2[nH]c(=O)n(CCC3CCCCC3)c(=O)c2c1 | – | 88
0.022 | 3.2 | 131 (≈ 46.8 µg/mL) | CC(=O)Nc1ccc2[nH]c(=O)n([C@H]3CC[C@H](C(C)(C)C)CC3)c(=O)c2c1 | 180 | 3.9
0.12 | 4.2 | – | CC[C@H]1CC[C@H](n2c(=O)[nH]c3ccc(N)cc3c2=O)CC1 | 270 | 32
0.2 | 26 | – | CC(=O)Nc1ccc2[nH]c(=O)n([C@H]3CC[C@@H](C(C)C)CC3)c(=O)c2c1 | 210 | 41
0.84 | 1.4 | 310 (≈ 111 µg/mL) | CC(=O)Nc1cnc2[nH]c(=O)n([C@H]3CC[C@H](C(C)(C)C)CC3)c(=O)c2c1 | 80 | 67
1.94 | – | – | O=C(Cn1ccnc1[N+](=O)[O-])NCc1ccccc1 [BENZNIDAZOLE] | – | –
0.73 | – | – | CC(=O)Nc1ccc2[nH]c(=O)n(CCC3CCCCC3)c(=O)c2c1 | 110 | 52
3.1 | < 0.5 | – | CC(=O)Nc1ccc2[nH]c(=O)n([C@H]3CC[C@H](OC(C)C)CC3)c(=O)c2c1 | 44 | 136
0.38 | 10 | 15 (≈ 5.17 µg/mL) | CC(=O)Nc1cnc2[nH]c(=O)n([C@H]3CC[C@@H](C(C)C)CC3)c(=O)c2c1 | 42 | 16
54 | – | – | CC(=O)Nc1ccc2[nH]c(=O)n(C3CCN(C(=O)OC(C)(C)C)C3)c(=O)c2c1 (racemic) | 3.1 | 170
17 | – | – | CC(=O)Nc1ccc2[nH]c(=O)n(Cc3ccccc3)c(=O)c2c1 | 9 | 148
2.1 | 16 | – | CC(=O)Nc1ccc2[nH]c(=O)n([C@H]3CCO[C@@H](C(C)(C)C)C3)c(=O)c2c1 (racemic) | 60 | 125
2.2 | – | – | CC(=O)Nc1ccc2[nH]c(=O)n([C@H](C)C3CCCCC3)c(=O)c2c1 | 40 | 88
0.12 | 1.9 | 25 (≈ 7.56 µg/mL) | CC(C)[C@H]1CC[C@H](n2c(=O)[nH]c3ncc(N)cc3c2=O)CC1 | 380 | 46
– | – | – | COc1cc([C@@H]2c3cc4c(cc3[C@H](O)[C@H]3COC(=O)[C@H]23)OCO4)cc(OC)c1OC [PODOFILOX] | – | 0.014
4.3 | – | – | CC(=O)Nc1ccc2[nH]c(=O)n(-c3ccc(C(C)(C)C)cc3)c(=O)c2c1 | 4 | 17
0.027 | – | – | CC(C)[C@H]1CC[C@H](n2c(=O)[nH]c3ccc(N)cc3c2=O)CC1 | 810 | 22
2.1 | – | – | CC(=O)Nc1ccc2[nH]c(=O)n(C3CCCCCC3)c(=O)c2c1 | 53 | 112

EC50 [2] [µM] | intrinsic clearance [4] [mL/min/g] | solubility kinetic [5] [µM] | SMILES | selectivity ratio [1] | EC50 [3] [µM]
2.3 | – | – | CC(=O)Nc1ccc2[nH]c(=O)n(CC3CCCCC3)c(=O)c2c1 | 23 | 54
0.35 | < 0.5 | – | CC(=O)Nc1ccc2[nH]c(=O)n([C@H]3CC[C@H](C(F)(F)F)CC3)c(=O)c2c1 | 27 | 9.5
3.5 | < 0.5 | – | CC(=O)Nc1ccc2[nH]c(=O)n([C@H]3CC[C@H](OC(C)(C)C)CC3)c(=O)c2c1 | 35 | 123
7.1 | – | – | CC(C)(C)C(=O)Nc1ccc2[nH]c(=O)n(CCC3CCCCC3)c(=O)c2c1 | 1.8 | 13
140 | – | – | CC(=O)Nc1ccc2[nH]c(=O)n(C3CCN(C(=O)c4ccccc4)CC3)c(=O)c2c1 | 1 | 135
1.1 | – | – | CC(=O)Nc1ccc2[nH]c(=O)n(CCc3ccccc3)c(=O)c2c1 | 130 | 139
139 | – | 130 (≈ 46.7 µg/mL) | CC(=O)Nc1ccc2[nH]c(=O)n([C@H]3CC[C@H](C(C)(C)O)CC3)c(=O)c2c1 | 0.98 | 136
2.1 | – | – | CC(=O)Nc1ccc2[nH]c(=O)n(CCC3=CCCCC3)c(=O)c2c1 | 51 | 107
1.7 | – | – | O=c1[nH]c2ccc(-c3ccncc3)cc2c(=O)n1CCC1CCCCC1 | 8 | 14
12 | – | – | CC(=O)Nc1ccc2[nH]c(=O)n(C3CCCC3)c(=O)c2c1 | 15 | 184
170 | – | – | CC(=O)Nc1ccc2[nH]c(=O)n(C(CC3CCCCC3)C(N)=O)c(=O)c2c1 (centres undefined) | 1.3 | 222
0.061 | 1.4 | – | CC(=O)Nc1cnc2[nH]c(=O)n([C@H]3CC[C@H](C(C)C)CC3)c(=O)c2c1 | 520 | 32
7.5 | – | – | CC(=O)Nc1ccc2[nH]c(=O)n(CCCc3ccccc3)c(=O)c2c1 | 18 | 134
1.4 | – | – | CC(=O)Nc1ccc2[nH]c(=O)n(C3CCC(C)CC3)c(=O)c2c1 (mixture of isomers) | 39 | 54
0.48 | – | – | CC(=O)Nc1ccc2[nH]c(=O)n(CCCC3CCCCC3)c(=O)c2c1 | 180 | 87
2.6 | – | – | CC(=O)Nc1ccc2[nH]c(=O)n([C@H]3CC[C@H](C(C)(C)F)CC3)c(=O)c2c1 | 6.5 | 17
1.9 | – | – | Nc1ccc2[nH]c(=O)n(CCC3CCCCC3)c(=O)c2c1 | 10 | 19
2.9 | – | – | CCCCCCn1c(=O)[nH]c2ccc(NC(C)=O)cc2c1=O | 53 | 154
0.66 | 0.5 | – | CC(C)(C)[C@H]1CC[C@H](n2c(=O)[nH]c3ncc(N)cc3c2=O)CC1 | 95 | 63

From ChEMBL document CHEMBL4402577, “Discovery and Optimization of a Compound Series Active against Trypanosoma cruzi, the Causative Agent of Chagas Disease” (J Med Chem, 2020)
